Experimental data reported in EPA's ToxValDB 9.5 (doi:10.2903/j.efsa.2017.4887).
Converted amounts (≈) assume the structure as drawn.

Columns and labels:
[1] = tested on: Pleurozium sp.; details: acute; duration: 72 hours; growth
[2] = tested on: Folsomia candida; details: chronic/long-term; duration: 28 days; reproduction
[3] = tested on: Oncorhynchus mykiss; details: acute; duration: 96 hours; mortality
[4] = tested on: Aphidius rhopalosiphi; assay: LR50; higher = less toxic; details: not reported; mortality
[5] = tested on: Hypoaspis aculeifer; details: chronic/long-term; reproduction
[6] = tested on: Neomysis kadiakensis
[7] = tested on: Rattus norvegicus
[8] = tested on: Colinus virginianus; details: acute; oral; mortality
[9] = tested on: Anas platyrhynchos; details: reproductive
[10] = tested on: Bibionidae; details: chronic/long-term; duration: 28 days; other
[11] = tested on: Cyprinodon variegatus; details: chronic/long-term; duration: 100 days; reproduction
[12] = tested on: Argyrosomus sp.; details: acute; duration: 96 hours; mortality
[13] = tested on: Apis mellifera; details: acute, mortality

SMILES | NOEC [1] | NOEC [2] | LC50 [3] | LR50 [4] | NOEC [5] | LC50 ([6]; acute, duration: 96 hours, mortality) | NOEC ([6]; chronic/long-term, duration: 28 days, reproduction) | LD50 ([7]; acute, oral, mortality) | NOAEL ([7]; chronic, duration: 2 years, organ weight) | NOAEL ([7]; developmental, development) | NOAEL ([7]; reproduction developmental, histopathology: nonneoplastic) | LD50 [8] | NOAEL [9] | NOEC [10] | NOEC [11] | LC50 [12] | LD50 ([13]; dermal) | LD50 ([13]; oral, unspecified)
O=C(O)[C@H]1CO[C@@](Cn2cncn2)(c2ccc(Cl)cc2Cl)O1 (racemic) | 112 mg/L | 1000 mg/kg |  |  |  |  |  |  |  |  |  |  |  |  |  |  |  | 
O=C(O)[C@@H]1CO[C@@](Cn2cncn2)(c2ccc(Cl)cc2Cl)O1 (racemic) |  | 1000 mg/kg | > 100 µg/mL |  |  |  |  |  |  |  |  |  |  |  |  |  |  | 
CCCC1COC(Cn2cncn2)(c2ccc(Cl)cc2Cl)O1 (centres undefined) [Propiconazole] |  |  |  | > 250 g/ha | 22.4 mg/kg | 0.51 µg/mL (≈ 1.49 µM) | 0.114 mg/L | 550 mg/kg-day | 3.6 mg/kg-day | 30 mg/kg-day | 8.4 mg/kg-day | ≥ 2510 mg/kg-day | 25.5 mg/kg-day | 4 mg/L | 0.068 mg/L | 2.6 µg/mL (≈ 7.6 µM) | 46.3 µg/piece | 203 µg/piece
